For one test, the system named is L-DTP (EPI) cells. Nature of the test: CCK8 survival of drug-resistant L-DTP (EPI) cells, single and combined drugs. Format: cell-based. The note with it: drug-resistant L-DTP (EPI) cells produced by continuously adding EPI for 9 days, optimal concentration of Pola. As to the method:
(§1) Furthermore, CCK8 is used and drugs are used in drug-resistant L-DTP cells in a single form and combined form separately.
(§2) After the cells adhered to walls, a series of Pola from high to low concentrations were prepared. A most optimal concentration of the Pola was found. […] Cl values of the L-DTP cells were calculated by Calcusyn software.

Test [1] relates to mouse model of spontaneous prostate with overexpression of C-MYC (Hi-Myc). Nature of the test: Hi-Myc mouse model of prostate cancer, prostate weight (Example 5). It counts as in vivo. Particulars: for Average prostate weight of mice: 30 days administration after relapse, gavage once every three days, Enza 30 mg/Kg, Pola 30 mg/Kg, combined Enza 10 mg/Kg + Pola 20 mg/Kg, NC group 105.4 mg. From the text:
A mouse model of spontaneous prostate with overexpression of C-MYC (Hi-Myc) was established. […] A part of the mice were sacrificed and their prostate cancers were photographed and weighed. […] The remaining mice were continuously administered according to the above method for 30 days. […] The mice were correspondingly gavaged. […] The mice were sacrificed and their prostate cancers were photographed, weighed and subjected to immunohistochemistry.

The subject of a further test is AR. Nature of the test: Immunohistochemistry of AR in prostate tissue sections (Example 4). Particulars: 30 days administration after relapse, Enza 10 mg/Kg, Pola 20 mg/Kg, combined 10 + 20 mg/Kg, NC group 94. Format: in vivo, mouse. From the text: (§3) The mice were correspondingly gavaged. […] The mice were sacrificed and their prostate cancers were photographed, weighed and subjected to immunohistochemistry.

A further test concerns L-DTP (Enza) cells. Nature of the test: CCK8 survival of drug-resistant L-DTP (Enza) cells, single and combined drugs. Format: cell-based. Particulars: drug-resistant L-DTP (Enza) cells produced by continuously adding Enza for 9 days, optimal concentration of Pola. As to the method:
as §1, §2

The next test relates to PRDX5. Nature of the test: Immunohistochemistry of PRDX5 in prostate tissue sections (Example 4). It counts as in vivo, mouse. Particulars: 30 days administration after relapse, Enza 10 mg/Kg, Pola 20 mg/Kg, combined 10 + 20 mg/Kg, NC group 61.7.
Description: as §3

Test [2] relates to mouse model of spontaneous prostate cancer with overexpression of C-MYC (Hi-Myc). Nature of the test: Hi-Myc mouse model of prostate cancer, prostate weight and HE staining (Example 4). Format: in vivo. Particulars: for Average prostate weight of mice: 30 days administration after relapse caused by drug resistance, gavage once every three days, Enza 10 mg/Kg, Pola 20 mg/Kg, combined 10 + 20 mg/Kg, NC group 100.1 mg; for average prostate weight: 10 mg/Kg gavage once every three days.
Description: A mouse model of spontaneous prostate cancer with overexpression of C-MYC (Hi-Myc) was established. […] A part of the mice were sacrificed and their prostate cancers were photographed and weighed. […]. The remaining mice were continuously administered according to the above method for 30 days. […]. […] At this time, the mice were divided into different groups immediately to study effects of combined use of drugs.
as §3

The mark [3] stands for this setting: 10 mg/Kg gavage once every three days for 30 days.

Structures are written as SMILES.

On to `NCCC(=O)[N-][C@@H](Cc1c[nH]cn1)C(=O)[O-].[Zn+2]` [Pola, polaprezinc], for which the inhibition rate entry in the test on L-DTP (EPI) cells and in the test on L-DTP (Enza) cells was “no obvious inhibition rate” in each case. Further, the “Average prostate weight of mice” value is 81.2 mg in test [1] and 80.625 mg in test [2]. Moreover, the “Expression amount of AR/%” value in the test with AR was found to be 70.4%. The “Expression amount of PRDX5/%” value in the test on PRDX5 turned out to be 74.2%. The “effect on drug-resistant CRPC (prostate weight, in words)” value in test [2] (30 days administration after relapse, compared with single use / between single groups) is recorded as “does not have a significant effect”.

For `CNC(=O)c1ccc(N2C(=S)N(c3ccc(C#N)c(C(F)(F)F)c3)C(=O)C2(C)C)cc1F` [Enza, enzalutamide], the “prostate weight compared with the NC group” value in test [1] (setting [3]) and in test [2] (setting [3]) was “reduced by half” throughout. Further, the “Average prostate weight of mice” value in test [1] was found to be 85.9 mg; in test [2], 83.3 mg. In addition, the inhibition rate result with L-DTP (Enza) cells was “no obvious inhibitory effect”. Further, the “Expression amount of PRDX5/%” value in the test with PRDX5 worked out at 93.6%. Also, the average prostate weight in test [2] (after 30 days of continuous administration, NC group 85.3 mg) is 41.2 mg; in test [2] (after 60 days of continuous administration, relapse, NC group 95.6 mg), 78.4 mg.

With `CC(C)(c1ccc(OCC(O)CO)cc1)c1ccc(OCC(O)CCl)cc1` (stereo not drawn) [EPI, EPI-001], in the test with L-DTP (EPI) cells, the inhibition rate entry was “no obvious inhibitory effect”.

The values are drawn from patent US12533361B2, “Use of polaprezinc in preparing drug for treating castration-resistant prostate cancer” (Jiangnan University, priority 2021, dated 2026).
